Values quoted from earlier work as cited in patent US10918699B2, “Therapeutic treatment for neurotrophic keratopathy” (priority 2017, dated 2021).

Experiments:
corneal ulcers = details: systemic administration, humans, 1945 case series
[1] = test system: cultured sheets of corneal epithelial cells
[2] = test system: corneal epithelium wound healing; details: together with substance-P; several pre-clinical studies

Substance	healing of corneal ulcers (corneal ulcers)	cell migration and closure of artificial wounds [1]	corneal epithelium wound healing [2]
insulin	improved healing	promoted cell migration and closure of artificial wounds	
Insulin-like growth factor-1 [IGF-1]			act synergistically with substance-P
